From US7579018B2, “Microbiological control in aqueous systems” (Albemarle Corporation, priority 2000, dated 2009)

Columns and labels:
[1] = “free chlorine” (Hach Method 8021) and “total chlorine” (Hach Method 8167) in dosed simulated cooling water, Example 1; format: physicochemical; conditions: for Free Cl2 / Total Cl2 / % hydrolysis to Free Cl2: simulated cooling water pH 9.1, 38° C.
Excerpt: The standard tests for determination of “free chlorine” and “total chlorine” are based on classical test procedures devised by Palin in 1974. See A. T. Palin, “Analytical Control of Water Disinfection With Special Reference to Differential DPD Methods For Chlorine, Chlorine Dioxide, Bromine, Iodine and Ozone”, J. Inst. Water Eng., 1974, 28, 139. While there are various modernized versions of the Palin procedures, the version of the tests for “free chlorine” and “total chlorine” used and to be used as the standard in connection with this invention, are fully described in Hach Water Analysis Handbook, 3rd edition, copyright 1997. The procedure for “free chlorine” is identified in that publication as Method 8021 appearing on page 335, whereas the procedure for “total chlorine” is Method 8167 appearing at page 379. Briefly, the “free chlorine” test involves introducing to the halogenated water a powder comprising DPD indicator powder and a buffer. “Free chlorine” present in the water reacts with the DPD indicator to produce a red to pink coloration. The intensity of the coloration depends upon the concentration of “free chlorine” species present in the sample. This intensity is measured by a calorimeter calibrated to transform the intensity reading into a “free chlorine” value in terms of mg/L Cl2. Similarly, the “total chlorine” test also involves use of DPD indicator and buffer. In this case, KI is present with the DPD and buffer whereby the halogen species present, including nitrogen-combined halogen, reacts with KI to yield iodine species which turn the DPD indicator to red/pink. The intensity of this coloration depends upon the sum of the “free chlorine” species and all other halogen species present in the sample. Consequently, this coloration is transformed by the colorimeter into a “total chlorine” value expressed as mg/L Cl2.
DBDAH and BCDMH Test Procedure • 1. To determine the amount of species present in the water which respond to the “free chlorine” and “total chlorine” tests, the water sample should be analyzed within a few minutes of being taken, and preferably immediately upon being taken. • 2. Hach Method 8021 for testing the amount of species present in the water sample which respond to the “free chlorine” test involves use of the Hach Model DR 2010 calorimeter. The stored program number for chlorine determinations is recalled by keying in “80” on the keyboard, followed by setting the absorbance wavelength to 530 nm by rotating the dial on the side of the instrument. Two identical sample cells are filled to the 10 mL mark with the water under investigation. One of the cells is arbitrarily chosen to be the blank. Using the 10 mL cell riser, this is admitted to the sample compartment of the Hach Model DR 2010, and the shield is closed to prevent stray light effects. Then the ZERO key is depressed. After a few seconds, the display registers 0.00 mg/L Cl2. To second cell, the contents of a DPD Free Chlorine Powder Pillow are added. This is shaken for 10-20 seconds to mix, as the development of a pink-red color indicates the presence of species in the water which respond positively to the DPD test reagent. Within one minute of adding the DPD “free chlorine” reagent to the 10 mL of water in the sample cell, the blank cell used to zero the instrument is removed from the cell compartment of the Hach Model DR 2010 and replaced with the test sample to which the DPD “free chlorine” test reagent was added. The light shield is then closed as was done for the blank, and the READ key is depressed. The result, in mg/L Cl2 is shown on the display within a few seconds. This is the “free chlorine” level of the water sample under investigation. • 3. Hach Method 8167 for testing the amount of species present in the water sample which respond to the “total chlorine” test involves use of the Hach Model DR 2010 calorimeter. […]

[2] = Iodometric titration of clear saturated stock solutions; format: physicochemical; conditions: 1 gram powder slurried in 100 mL deionized water, stirred 20 minutes, filtered
Experimental: Stock solutions of DBDMH and of BCDMH were prepared by slurrying 1 gram of the respective powders in 100 mL of deionized water. After stirring for 20 minutes, the insolubles were filtered to yield clear saturated stock solutions of DBDMH and BCDMH, respectively. Iodometric titration of the stock solutions using the potassium iodide-sodium thiosulfate method indicated the DBDMH solution contained 580 mg/L (as total chlorine), and the BCDMH solution contained 1100 mg/L (as total chlorine).

planktonic bacteria = assay: Cooling tower field test with floater dispenser, Example 5: planktonic plate counts; conditions: substantially continuous dosing from floater, 0.15 to 0.2 ppm of free halogen as Br2
Experimental: Another field test was carried out in the cooling tower described in Example 2 above. In this field test the cooling tower water was substantially continuously dosed with DBDMH using a Rainbow Lifeguard swimming pool floater having a capacity of about 3 lbs of granules, with the slots in the wide open position. This floater, charged with DBDMH granules, was placed and secured in the tower basin, a very convenient location for addition of the biocide when needed. The floater delivered a dose of “free halogen” to maintain a dosage level in the range of 0.15 to 0.2 ppm of free halogen as Br2.
The granules of DBDMH used in Examples 2-5 have an average size in the range of about 40 U.S. standard mesh size to about ⅜-inch, and an average crush strength of at least 15 pounds per inch of thickness. The combination of the low water solubility of DBDMH coupled with its use in granular form provided a slow but continuous or substantially continuous automatic dosing of the cooling tower water so that a biocidally effective level of free bromine was maintained in the water during the entire test, with relatively infrequent refilling of the dispenser being required.

[3] = dosed to 1 mg/L as total chlorine, Time 0 hr
[4] = Time 0.5 hr, percentage of Time 0 value
[5] = Time 1 hr, percentage of Time 0 value
[6] = Time 1.5 hr, percentage of Time 0 value
[7] = Time 2 hr, percentage of Time 0 value
[8] = Time 3 hr, percentage of Time 0 value
[9] = Time 4 hr, percentage of Time 0 value
[10] = Time 5 hr, percentage of Time 0 value
[11] = Time 6 hr, percentage of Time 0 value

With `CC1(C)C(=O)N(Br)C(=O)N1Br` [DBDMH, 1,3-dibromo-5,5-dimethylhydantoin] the “Free Cl2” value [1, 3] was 98.8, the “Total Cl2” value [1, 3] was 100 and the “% hydrolysis to Free Cl2” value ([1]; Time 0 hr) was 98.8%. The “% hydrolysis to Free Cl2” value ([1]; Time 0.5 hr) was 95.6%, the “Free Cl2” value [1, 4] was 100% and the “Total Cl2” value [1, 4] was 104%. For the same compound, the “% hydrolysis to Free Cl2” value ([1]; Time 1 hr) was 97.3%, the “Free Cl2” value [1, 5] was 85.1% and the “Total Cl2” value [1, 5] was 87.3%. For the same compound, the “% hydrolysis to Free Cl2” value ([1]; Time 1.5 hr) was 100%, the “Free Cl2” value [1, 6] was 87.3% and the “Total Cl2” value [1, 6] was 87.3%. The “% hydrolysis to Free Cl2” value ([1]; Time 2 hr) was 97.2%, the “Free Cl2” value [1, 7] was 81.6% and the “Total Cl2” value [1, 7] was 83.9%. The “% hydrolysis to Free Cl2” value ([1]; Time 3 hr) was 93.8%, the “Free Cl2” value [1, 8] was 70.1% and the “Total Cl2” value [1, 8] was 74.7%. For the same compound, the “% hydrolysis to Free Cl2” value ([1]; Time 4 hr) was 93.8%, the “Free Cl2” value [1, 9] was 65.5% and the “Total Cl2” value [1, 9] was 66.6%. For the same compound, the “% hydrolysis to Free Cl2” value ([1]; Time 5 hr) was 96.4%, the “Free Cl2” value [1, 10] was 60.1% and the “Total Cl2” value [1, 10] was 63.2%. The “% hydrolysis to Free Cl2” value ([1]; Time 6 hr) was 96.3%, the “Free Cl2” value [1, 11] was 59.8% and the “Total Cl2” value [1, 11] was 62%. For the same compound, the ““total chlorine” level higher than the “free chlorine level” of the water” value ([1]; water of pH of at least 8 freshly treated) was “no more than 10%”, the “halogen content of saturated stock solution (as total chlorine)” value [2] was 580 mg/L and the planktonic plate counts (planktonic bacteria) was “less than 10^4 CFU/mL”.
